The values below are quoted from earlier work in publication PMC2997942 (Molecular pharmaceutics, 2010).

For data set [1] the following is noted: clinical; ref Supplemental Table S6 references 1-19; cited from earlier work.
In another data set the target is Rat kidney OCTN2. The following applies: read-out: Ki or IC50; Rat kidney OCTN2 reconstituted in liposomes; cited from earlier work.

pKi: −log10 of the molar value.

What is called pKi is the Ki on a negative log10 scale, so that one unit is a factor of ten. As for `COc1ccc2[nH]c([S+]([O-])Cc3ncc(C)c(OC)c3C)nc2c1` (centres unmarked) [Omeprazole], the “Documented to cause rhabdomyolysis and/or carnitine deficiency in the literature” value in data set [1] was “Yes[6]”. Further, the pKi on Rat kidney OCTN2 was 4.84.
